Measurements as given in ChEMBL document CHEMBL1201862, “PubChem BioAssay data set” (2004).
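Dose response: 5 concentrations. Exposure: 48 h. Format: 96-well plates. Endpoint: linear interpolation; highest concentration if not reached. At the GI50, growth is halved.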 The source made the active and inactive calls. Rule as the data show it: active = GI50 up to about 1.1 µM and inactive = higher.

Columns and labels:
Assay in all cases: NCI anticancer screen, dose series, 48 h
BT-549 = tested on: BT-549
CAKI-1 = tested on: CAKI-1
EKVX = tested on: EKVX
HL-60 = tested on: HL-60
HOP-92 = tested on: HOP-92
HT-29 = tested on: HT-29
KM12 = tested on: KM12
M14 = tested on: M14
PC-3 = tested on: PC-3
SF-295 = tested on: SF-295
SK-MEL-2 = tested on: SK-MEL-2
SK-OV-3 = tested on: SK-OV-3
SR = tested on: SR
SW-620 = tested on: SW-620
U-251 = tested on: U-251
UACC-62 = tested on: UACC-62
UO-31 = tested on: UO-31
OVCAR-4 = tested on: OVCAR-4

Row | SMILES | GI50 (BT-549) | GI50 (CAKI-1) | GI50 (EKVX) | GI50 (HL-60) | GI50 (HOP-92) | GI50 (HT-29) | GI50 (KM12) | GI50 (M14) | GI50 (PC-3) | GI50 (SF-295) | GI50 (SK-MEL-2) | GI50 (SK-OV-3) | GI50 (SR) | GI50 (SW-620) | GI50 (U-251) | GI50 (UACC-62) | GI50 (UO-31) | GI50 (OVCAR-4)
1 | Oc1ccccc1C(c1cc2c(cc1O)OCO2)N1CCOCC1 (stereo unspecified) | 16.6 µM (inactive) | 19.7 µM (inactive) | 50.9 µM (inactive) | 2.24 µM (inactive) | 17.3 µM (inactive) | 18.5 µM (inactive) | 19.8 µM (inactive) | 17.9 µM (inactive) | 16.3 µM (inactive) | 20.6 µM (inactive) | 17.8 µM (inactive) | 19.8 µM (inactive) | 8.07 µM (inactive) | 23 µM (inactive) | 16.6 µM (inactive) | 17 µM (inactive) | 15.8 µM (inactive) | 
2 | Cc1ccc(S(=O)(=O)N2CCSCCSCCSCCSCC2)cc1 | 25.4 µM (inactive) | 22.4 µM (inactive) | 48.5 µM (inactive) | 99.8 µM (inactive) | 12.3 µM (inactive) | > 100 µM (inactive) | > 100 µM (inactive) | 61.4 µM (inactive) | 55 µM (inactive) | 22.6 µM (inactive) | > 34.6 µM (inactive) | 19.1 µM (inactive) | > 74.3 µM (inactive) | > 100 µM (inactive) | 18.4 µM (inactive) | 17.1 µM (inactive) | 50.2 µM (inactive) | 27.8 µM (inactive)
3 | Cc1ccc2c(c1)S(=O)(=O)c1ccc3ccccc3c1N2 | > 100 µM (inactive) | > 100 µM (inactive) | > 100 µM (inactive) | > 100 µM (inactive) | > 100 µM (inactive) | > 100 µM (inactive) | > 100 µM (inactive) | > 100 µM (inactive) | > 100 µM (inactive) | > 100 µM (inactive) | > 100 µM (inactive) | > 100 µM (inactive) | 15.4 µM (inactive) | > 100 µM (inactive) | > 100 µM (inactive) | > 100 µM (inactive) | > 100 µM (inactive) | > 100 µM (inactive)
4 | COc1cc2c(c(O)c1OC)C(=O)[C@@H]1CCC(=O)N1C2 | > 100 µM (inactive) | > 100 µM (inactive) | > 100 µM (inactive) | > 100 µM (inactive) | 71 µM (inactive) | > 100 µM (inactive) | > 100 µM (inactive) | > 100 µM (inactive) | > 100 µM (inactive) | > 100 µM (inactive) | > 100 µM (inactive) | > 100 µM (inactive) | > 100 µM (inactive) | > 100 µM (inactive) | > 100 µM (inactive) | > 100 µM (inactive) | > 100 µM (inactive) | > 100 µM (inactive)
5 | O=C1COc2ccc([N+](=O)[O-])cc2C(=O)C1 | > 10 µM (inactive) | > 10 µM (inactive) | > 10 µM (inactive) | > 10 µM (inactive) | 0.001 µM (active) | > 10 µM (inactive) | > 10 µM (inactive) | > 10 µM (inactive) | > 10 µM (inactive) | > 10 µM (inactive) | > 10 µM (inactive) | > 10 µM (inactive) | > 10 µM (inactive) | > 10 µM (inactive) | > 10 µM (inactive) | > 10 µM (inactive) | > 10 µM (inactive) | > 10 µM (inactive)
6 | COc1ccc(OC)c(C2Cc3cnc4nc(N)nc(N)c4c3C2)c1 (stereo unspecified) | 22.8 µM (inactive) | 76.9 µM (inactive) | 25.6 µM (inactive) | 20.4 µM (inactive) | 24.3 µM (inactive) | 20.8 µM (inactive) | 24.3 µM (inactive) | 36.1 µM (inactive) | 22.4 µM (inactive) | 28.6 µM (inactive) | 21.1 µM (inactive) | 31.8 µM (inactive) | 19.4 µM (inactive) | 33.2 µM (inactive) | 20.7 µM (inactive) | 18.6 µM (inactive) | 71.9 µM (inactive) | 20.8 µM (inactive)
7 | CC1=CC2C3(C)C(C)(C(C)=CP3(=O)c3c(C(C)C)cc(C(C)C)cc3C(C)C)C1P2(=O)c1c(C(C)C)cc(C(C)C)cc1C(C)C (stereo unspecified) | 1.77 µM (inactive) | 3.01 µM (inactive) | 2.92 µM (inactive) | 1.09 µM (active) | 1.64 µM (inactive) | 2.11 µM (inactive) | 1.78 µM (inactive) | 1.92 µM (inactive) | 2.7 µM (inactive) | 2.4 µM (inactive) | 1.72 µM (inactive) | 2.38 µM (inactive) | 1.34 µM (inactive) | 3.08 µM (inactive) | 2.45 µM (inactive) | 1.37 µM (inactive) | 1.87 µM (inactive) | 3.25 µM (inactive)
8 | COC1/C=C/C(C)C(OC)CC(O)/C=C/C(C)C(C(C)C(OC)C(C)CCC(=O)C(C)C(C/C=C/N(C)C=O)OC)OC(=O)/C=C/C=C(\C)CC(OC)CC2=CC(=O)O[C@@H](C(C)C(OC)C1)[C@H]2O (stereo partly specified) | 0.142 µM (active) | 0.0332 µM (active) | 0.386 µM (active) | 0.064 µM (active) | 0.0634 µM (active) | 0.0845 µM (active) | 0.0753 µM (active) | 0.056 µM (active) | 0.0873 µM (active) | 0.11 µM (active) |  | 0.151 µM (active) | 0.0929 µM (active) | 0.0664 µM (active) | 0.0706 µM (active) | 0.148 µM (active) | 0.0998 µM (active) | 0.12 µM (active)
9 | O=C(O)C1C(C(=O)O)C23CC2(C(=O)O)C2(C(=O)O)CCC3=C3CCCC312 (stereo unspecified) | 17.2 µM (inactive) | 20.2 µM (inactive) | 11.6 µM (inactive) | 3.44 µM (inactive) | 8.3 µM (inactive) | 7.45 µM (inactive) | 14 µM (inactive) | 6.84 µM (inactive) | 5.45 µM (inactive) | 4.13 µM (inactive) | 14 µM (inactive) | 3.89 µM (inactive) | 2.24 µM (inactive) | 6.34 µM (inactive) | 5.97 µM (inactive) | 10.5 µM (inactive) | 8.97 µM (inactive) | 16 µM (inactive)
10 | CCOC(=O)/C(C(N)=O)=C(/O)c1cnccn1 | > 100 µM (inactive) | > 100 µM (inactive) | > 100 µM (inactive) | > 100 µM (inactive) | > 100 µM (inactive) | > 100 µM (inactive) | > 100 µM (inactive) | > 100 µM (inactive) | > 100 µM (inactive) | > 100 µM (inactive) | > 100 µM (inactive) | > 100 µM (inactive) | > 100 µM (inactive) | > 100 µM (inactive) | > 100 µM (inactive) | > 100 µM (inactive) | > 100 µM (inactive) | > 100 µM (inactive)
11 | CCOc1ccccc1/N=N/C1C(=O)N(C(=O)CC(=O)Nc2ccccc2OC)N=C1C (stereo unspecified) | > 100 µM (inactive) | > 100 µM (inactive) | 0.427 µM (active) | > 100 µM (inactive) | 20.3 µM (inactive) | > 100 µM (inactive) | > 100 µM (inactive) | > 100 µM (inactive) | > 100 µM (inactive) | 20.9 µM (inactive) | 55.7 µM (inactive) | 27.5 µM (inactive) | > 10 µM (inactive) | > 100 µM (inactive) | 27.3 µM (inactive) | 25.7 µM (inactive) | 27.8 µM (inactive) | > 100 µM (inactive)
12 | COc1cc(C2C(Cl)C(=O)N2NC(=O)c2ccc(NC(C)=O)cc2OC)ccc1O (stereo unspecified) | 17.3 µM (inactive) | 31.1 µM (inactive) | 13.6 µM (inactive) | 20.3 µM (inactive) | 16 µM (inactive) | 15.1 µM (inactive) | 20.4 µM (inactive) | 16.3 µM (inactive) | 19.4 µM (inactive) | < 0.01 µM (active) | 14.5 µM (inactive) | 63.1 µM (inactive) | 7.29 µM (inactive) | 24.7 µM (inactive) |  | 18.1 µM (inactive) | 25.1 µM (inactive) | 39.1 µM (inactive)
13 | O=c1cc(-c2ccccc2)oc2cc(Oc3nnnn3-c3ccccc3)ccc12 | 21.4 µM (inactive) | 6.14 µM (inactive) | 35.8 µM (inactive) | 30.5 µM (inactive) | 2.37 µM (inactive) | 57.7 µM (inactive) | 40.4 µM (inactive) | 36.5 µM (inactive) | 39.4 µM (inactive) | 46.2 µM (inactive) | 28.4 µM (inactive) | 36 µM (inactive) | 44.9 µM (inactive) | > 100 µM (inactive) | 19.1 µM (inactive) | > 100 µM (inactive) | 19 µM (inactive) | 19.9 µM (inactive)
14 | CS(=O)(=O)Nc1ccc(NCc2c[nH]c3ccc4ncccc4c23)cc1 | 30.3 µM (inactive) | 19.6 µM (inactive) | 40.4 µM (inactive) | 22.3 µM (inactive) | 52.6 µM (inactive) | 34.8 µM (inactive) | 17.5 µM (inactive) | 20.9 µM (inactive) | 19 µM (inactive) | 24.2 µM (inactive) | 17.1 µM (inactive) | 50.8 µM (inactive) | 13.3 µM (inactive) | 32.3 µM (inactive) | 23.6 µM (inactive) | 15 µM (inactive) | 33.3 µM (inactive) | 25.9 µM (inactive)
15 | CC1(C)CO[P@@](=S)(c2ccccn2)O[C@@H]1c1ccccc1 | > 100 µM (inactive) | > 100 µM (inactive) | 96.8 µM (inactive) | > 100 µM (inactive) | > 100 µM (inactive) | > 100 µM (inactive) | > 100 µM (inactive) | > 100 µM (inactive) | > 100 µM (inactive) | > 100 µM (inactive) |  | > 100 µM (inactive) | 39.4 µM (inactive) | > 100 µM (inactive) | > 100 µM (inactive) | > 100 µM (inactive) | 82.6 µM (inactive) | 73.6 µM (inactive)
